Experiment [1] deals with T1, ShGH76 (Salegentibacter sp. Hel_I_6, UniProt A0ACD6BAU6, D116A/D117A, form not given).
T1 construct: gene GH76A; synthetic gene in pET28a(+) (NheI/XhoI), N-terminal 6xHis tag, E. coli BL21(DE3); modelled residues Asp54-Glu391
Description: X-ray crystallography of the complex, […] Å. Format: binding. The settings on record: inactive double mutant ShGH76^Ala; co-crystallised in 1.6 M tri-sodium citrate; active site.

Experiment [2] addresses T2, ShGH76 (Salegentibacter sp. Hel_I_6, UniProt A0ACD6BAU6).
T2 construct: gene GH76A; synthetic gene in pET28a(+) (NheI/XhoI), N-terminal 6xHis tag, E. coli BL21(DE3); modelled residues Asp54-Glu391
The experiment in a line: HPAEC-PAD product analysis. It counts as biochemical.

In experiment [3] the target is T3, ShGH76 (Salegentibacter sp. Hel_I_6, UniProt A0ACD6BAU6, D116N/D117N, form not given).
T3 construct: gene GH76A; synthetic gene in pET28a(+) (NheI/XhoI), N-terminal 6xHis tag, E. coli BL21(DE3); modelled residues Asp54-Glu391
The experiment in a line: X-ray crystallography of the complex, […] Å. Format: binding. Conditions: inactive double mutant ShGH76^Asn; co-crystallised at pH 4.6 with 140 mM calcium chloride; active site.

From article PMC9213526, “Glycoside hydrolase from the GH76 family indicates that marine Salegentibacter sp. Hel_I_6 consumes alpha-mannan from fungi” (The ISME Journal, 2022) come the findings set out here.

For the compound `OC[C@H]1O[C@H](OC[C@H]2O[C@H](OC[C@H]3O[C@H](OC[C@H]4OC(O)[C@@H](O)[C@@H](O)[C@@H]4O)[C@@H](O)[C@@H](O)[C@@H]3O)[C@@H](O)[C@@H](O)[C@@H]2O)[C@@H](O)[C@@H](O)[C@@H]1O` (stereo partly drawn) [Man4, α-1,6-mannotetrose], the “X-ray crystallography of the complex, 1.90 Å” value in experiment [1] was “crystal structures of ShGH76^WT (apo-form), ShGH76^Asn (with Man3) and ShGH76^Ala (with Man4)”.
Regarding `OC[C@H]1O[C@H](OC[C@H]2O[C@H](OC[C@H]3O[C@H](OC[C@H]4O[C@H](OC[C@H]5O[C@H](OC[C@H]6O[C@H](OC[C@H]7OC(O)[C@@H](O)[C@@H](O)[C@@H]7O)[C@@H](O)[C@@H](O)[C@@H]6O)[C@@H](O)[C@@H](O)[C@@H]5O)[C@@H](O)[C@@H](O)[C@@H]4O)[C@@H](O)[C@@H](O)[C@@H]3O)[C@@H](O)[C@@H](O)[C@@H]2O)[C@@H](O)[C@@H](O)[C@@H]1O` (stereo partly drawn) [Man7, mannoheptose], the HPAEC-PAD product analysis entry in experiment [2] was “As is exemplarily shown for Man7 (Fig. 5D), ShGH76^WT hydrolyzed α-1,6-mannooligosaccharides almost completely”.
For the compound `OC[C@H]1O[C@H](OC[C@H]2O[C@H](OC[C@H]3OC(O)[C@@H](O)[C@@H](O)[C@@H]3O)[C@@H](O)[C@@H](O)[C@@H]2O)[C@@H](O)[C@@H](O)[C@@H]1O` (stereo partly drawn) [Man3, α-1,6-mannotriose], the “X-ray crystallography of the complex, 1.47 Å” value in experiment [3] was “crystal structures of ShGH76^WT (apo-form), ShGH76^Asn (with Man3) and ShGH76^Ala (with Man4)”.
